The experiment deals with T1, RARα receptors (Homo sapiens, UniProt P10276).
T1 construct: made in house; used as extract protein
T1 sequence (P10276 1-462): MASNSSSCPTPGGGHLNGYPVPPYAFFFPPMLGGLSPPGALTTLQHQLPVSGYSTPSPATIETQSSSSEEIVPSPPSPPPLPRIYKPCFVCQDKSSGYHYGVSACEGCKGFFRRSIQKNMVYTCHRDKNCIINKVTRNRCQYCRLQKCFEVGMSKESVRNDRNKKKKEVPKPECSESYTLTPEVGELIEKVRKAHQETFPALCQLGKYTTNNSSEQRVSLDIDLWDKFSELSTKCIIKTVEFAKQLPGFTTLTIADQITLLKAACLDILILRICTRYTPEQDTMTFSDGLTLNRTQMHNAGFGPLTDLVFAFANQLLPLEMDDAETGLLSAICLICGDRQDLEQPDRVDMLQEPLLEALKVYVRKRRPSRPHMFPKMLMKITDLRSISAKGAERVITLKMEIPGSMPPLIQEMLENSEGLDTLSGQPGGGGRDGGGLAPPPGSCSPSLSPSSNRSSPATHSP
Briefly: ligand binding assay. The note with it: receptor read as RARα from the sentence. As to the method:
All binding assays were performed in a similar fashion. All six receptor types were derived from the expressed receptor type (RAR α, β, γ and RXR α, β, γ) expressed in Baculovirus. Stock solutions of all compounds were prepared as 10 mM ethanol solutions and serial dilutions carried out into 1:1 DMSO; ethanol. Assay buffers consisted of the following for all six receptor assays: 8% glycerol. 120 mM KCl. 8 mM Tris. 5 mM CHAPS 4 mM DTT and 0.24 mM PMSF. pH-7.4@room temperature.
All receptor biding assays were performed in the same manner. The final assay volume was 250 μl and contained from 10-40 μg of extract protein depending on receptor being assayed along with 5 nM of [^3H] all-trans retinoic acid or 10 nM [^3H] 9-cis retinoic acid and varying concentrations of competing ligand at concentrations that ranged from 0-10^−5M. The assays were formatted for a 96 well minitube system. Incubations were carried out at 4° C. until equilibrium was achieved. […] The amount of receptor-ligand complex was determined by liquid scintillation counting of hydroxyapitite pellet.
After correcting for non-specific binding, IC50 values were determined. […] The IC50 value was determined graphically from a loglogit plot of the data. The […] were determined by application of the Cheng-Prussof equation to the IC50 values, the labeled ligand concentration and the Kd of the labeled ligand. […]

As usually defined, the Kd is the equilibrium constant for the complex coming apart. A low value points to higher affinity.

Structures are written as SMILES.

In turn, `CC1(C)CCC(C)(C)c2c1cc(C(=O)Nc1cc(F)c(C(=O)O)c(F)c1)c(O)c2Cl` [Compound 2, 2,6-Difluoro-4-[(3-hydroxy-4-chloro-5,5,8 8-tetramethyl-5,6,7,8-tetrahydronaphthalene-2-carbonyl) -amino]-benzoic acid] displayed a Kd of 5 nM.

For the origin of these results see US6387950B2, “Treatment of tumors with RARα selective retinoid compounds in combination with other anti-tumor agents” (Allergan Sales, Inc., priority 2000, dated 2002).
